Experiments:
[1] = molecular target: Phosphatidylinositol 4,5-bisphosphate 3-kinase catalytic subunit alpha isoform (Homo sapiens, UniProt P42336); test: Inhibition of PI3Kalpha (unknown origin) by mobility shift assay
MV4-11 [2] = test: cells; format: functional, cell-based; conditions: Homo sapiens, MV4-11, 72 h
Description: Antiproliferative activity against human MV4-11 cells assessed as inhibition of cell proliferation incubated for 72 hrs by CCK8 assay

HL-60 = test: cells; format: functional, cell-based; conditions: Homo sapiens, HL-60, 72 h
Description: Antiproliferative activity against human HL-60 cells assessed as inhibition of cell proliferation incubated for 72 hrs by CCK8 assay

HGC-27 = test: Antiproliferative activity against human HGC-27 cells assessed as inhibition of cell proliferation incubated for 72 hrs by MTT assay; format: functional, cell-based; conditions: HGC-27, 72 h
HepG2 = test: Antiproliferative activity against human HepG2 cells assessed as inhibition of cell proliferation incubated for 72 hrs by MTT assay; format: functional, cell-based; conditions: HepG2, 72 h
MCF7 = test: Antiproliferative activity against human MCF7 cells assessed as inhibition of cell proliferation incubated for 72 hrs by MTT assay; format: functional, cell-based; conditions: MCF7, 72 h
MV4-11 [3] = test: Induction of apoptosis in human MV4-11 cells assessed as viable cells at 50 nM incubated for 48 hrs by Annexin V-FITC/PI staining based flow cytometry (reference value: 96.5%); format: functional; conditions: read-out: Activity
MV4-11 [4] = test: Induction of apoptosis in human MV4-11 cells assessed as late apoptotic cells at 150 nM incubated for 48 hrs by Annexin V-FITC/PI staining based flow cytometry (reference value: 2.04%); format: functional
MV4-11 [5] = test: Induction of apoptosis in human MV4-11 cells assessed as necrotic cells at 150 nM incubated for 48 hrs by Annexin V-FITC/PI staining based flow cytometry (reference value: 0.51%); format: functional
MV4-11 [6] = test: Induction of apoptosis in human MV4-11 cells assessed as viable cells at 450 nM incubated for 48 hrs by Annexin V-FITC/PI staining based flow cytometry (reference value: 96.5%); format: functional; conditions: read-out: Activity
MV4-11 [7] = test: Induction of apoptosis in human MV4-11 cells assessed as early apoptotic cells at 450 nM incubated for 48 hrs by Annexin V-FITC/PI staining based flow cytometry (reference value: 0.95%); format: functional
MV4-11 [8] = test: Induction of apoptosis in human MV4-11 cells assessed as late apoptotic cells at 450 nM incubated for 48 hrs by Annexin V-FITC/PI staining based flow cytometry (reference value: 2.04%); format: functional
MV4-11 [9] = test: Induction of apoptosis in human MV4-11 cells assessed as necrotic cells at 450 nM incubated for 48 hrs by Annexin V-FITC/PI staining based flow cytometry (reference value: 0.51%); format: functional
MV4-11 [10] = test: Induction of apoptosis in human MV4-11 cells assessed as total apoptotic cells at 450 nM incubated for 48 hrs by Annexin V-FITC/PI staining based flow cytometry (reference value: 2.99%); format: functional
MV4-11 [11] = test: Induction of cell cycle arrest in human MV4-11 cells assessed as accumulation of cells at G0/G1 phase at 150 nM incubated for 48 hrs by […]PI staining based flow cytometry (reference value: 33.1%); format: functional
MV4-11 [12] = test: Induction of cell cycle arrest in human MV4-11 cells assessed as accumulation of cells at G0/G1 phase at 450 nM incubated for 48 hrs by […]PI staining based flow cytometry (reference value: 33.1%); format: functional
MV4-11 [13] = test: Induction of cell cycle arrest in human MV4-11 cells assessed as accumulation of cells at S phase at 450 nM incubated for 48 hrs by […]PI staining based flow cytometry (reference value: 45.5%); format: functional
MV4-11 [14] = test: Induction of cell cycle arrest in human MV4-11 cells assessed as accumulation of cells at S phase at 1350 nM incubated for 48 hrs by […]PI staining based flow cytometry (reference value: 45.5%); format: functional
[15] = molecular target: T1, Protein deacetylase HDAC6 (Homo sapiens) (UniProt Q9UBN7); test: Inhibition of HDAC6 in human MV4-11 cells assessed as increase in acetylated alpha-tubulin level incubated for 24 hrs by western blot analysis; format: cell-based; conditions: dose 0.05-0.45 µM, DDE = dose-dependent effect
T1 sequence (whole entry): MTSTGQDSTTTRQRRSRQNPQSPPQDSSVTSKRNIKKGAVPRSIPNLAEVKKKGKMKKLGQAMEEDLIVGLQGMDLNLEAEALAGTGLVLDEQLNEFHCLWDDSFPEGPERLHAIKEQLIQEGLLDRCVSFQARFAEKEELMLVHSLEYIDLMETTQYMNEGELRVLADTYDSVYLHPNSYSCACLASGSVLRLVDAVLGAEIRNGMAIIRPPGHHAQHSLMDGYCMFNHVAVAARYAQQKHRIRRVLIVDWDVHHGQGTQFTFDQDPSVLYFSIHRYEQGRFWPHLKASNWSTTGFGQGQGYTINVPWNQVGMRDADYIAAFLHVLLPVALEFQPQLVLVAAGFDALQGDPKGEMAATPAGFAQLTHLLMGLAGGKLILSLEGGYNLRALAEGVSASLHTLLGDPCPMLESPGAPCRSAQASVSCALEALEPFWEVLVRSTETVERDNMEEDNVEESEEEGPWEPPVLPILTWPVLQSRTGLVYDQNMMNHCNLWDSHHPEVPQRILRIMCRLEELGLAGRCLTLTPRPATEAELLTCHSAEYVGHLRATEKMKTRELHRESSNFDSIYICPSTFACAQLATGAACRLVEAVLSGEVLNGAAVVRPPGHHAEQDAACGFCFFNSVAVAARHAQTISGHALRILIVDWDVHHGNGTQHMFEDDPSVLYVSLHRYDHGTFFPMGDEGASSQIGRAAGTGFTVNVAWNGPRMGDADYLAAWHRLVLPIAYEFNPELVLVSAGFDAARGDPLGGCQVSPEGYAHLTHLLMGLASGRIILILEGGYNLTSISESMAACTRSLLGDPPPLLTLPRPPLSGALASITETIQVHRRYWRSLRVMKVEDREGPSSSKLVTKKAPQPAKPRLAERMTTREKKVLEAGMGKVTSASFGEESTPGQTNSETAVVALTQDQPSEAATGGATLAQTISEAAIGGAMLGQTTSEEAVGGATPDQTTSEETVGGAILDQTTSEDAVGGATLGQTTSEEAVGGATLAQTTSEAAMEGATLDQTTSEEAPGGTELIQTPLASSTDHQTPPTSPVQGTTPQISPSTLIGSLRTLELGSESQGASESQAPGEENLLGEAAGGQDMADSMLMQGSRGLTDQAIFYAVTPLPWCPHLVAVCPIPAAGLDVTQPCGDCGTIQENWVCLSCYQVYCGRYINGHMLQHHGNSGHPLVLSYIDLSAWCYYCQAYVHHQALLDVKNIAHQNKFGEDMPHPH

Chain of Phosphatidylinositol 4,5-bisphosphate 3-kinase catalytic subunit alpha isoform (P42336 whole entry, canonical isoform): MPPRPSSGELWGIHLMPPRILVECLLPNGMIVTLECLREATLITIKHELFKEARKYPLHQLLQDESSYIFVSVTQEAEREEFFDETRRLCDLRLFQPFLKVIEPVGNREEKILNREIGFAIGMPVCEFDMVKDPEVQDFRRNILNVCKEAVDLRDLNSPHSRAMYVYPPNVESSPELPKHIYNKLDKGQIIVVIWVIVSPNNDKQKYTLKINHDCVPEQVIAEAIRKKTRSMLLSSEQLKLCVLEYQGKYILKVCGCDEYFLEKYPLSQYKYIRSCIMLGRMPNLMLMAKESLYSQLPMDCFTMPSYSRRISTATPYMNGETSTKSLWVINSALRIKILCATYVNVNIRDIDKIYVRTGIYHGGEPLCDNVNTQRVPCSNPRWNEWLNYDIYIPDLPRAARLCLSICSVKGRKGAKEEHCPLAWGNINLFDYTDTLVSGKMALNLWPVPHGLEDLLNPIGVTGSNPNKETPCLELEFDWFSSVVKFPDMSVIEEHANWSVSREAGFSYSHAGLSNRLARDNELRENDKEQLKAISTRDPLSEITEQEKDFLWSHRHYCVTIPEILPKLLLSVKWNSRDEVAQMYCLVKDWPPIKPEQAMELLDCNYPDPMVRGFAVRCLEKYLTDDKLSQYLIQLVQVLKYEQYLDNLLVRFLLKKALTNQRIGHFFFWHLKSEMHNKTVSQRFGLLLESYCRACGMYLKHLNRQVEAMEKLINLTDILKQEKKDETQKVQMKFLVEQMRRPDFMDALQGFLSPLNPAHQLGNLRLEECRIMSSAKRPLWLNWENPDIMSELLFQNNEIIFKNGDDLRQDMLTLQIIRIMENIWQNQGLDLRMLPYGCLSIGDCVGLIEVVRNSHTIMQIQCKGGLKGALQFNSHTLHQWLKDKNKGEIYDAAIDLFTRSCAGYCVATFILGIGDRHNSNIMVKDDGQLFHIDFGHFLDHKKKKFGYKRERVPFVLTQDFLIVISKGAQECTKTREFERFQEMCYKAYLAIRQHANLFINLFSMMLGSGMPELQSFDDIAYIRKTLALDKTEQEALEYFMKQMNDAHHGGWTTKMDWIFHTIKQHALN

IC50 [1]: 373 nM
IC50 (MV4-11 [2]): 90 nM
IC50 (HL-60): 350 nM
IC50 (HepG2): 1190 nM
IC50 (MCF7): 400 nM
inhibition [15]: Dde
Structure (SMILES): O=C(NO)c1ccc(Cn2cc(-c3cccc4[nH]ncc34)nc(N3CCOCC3)c2=O)cc1
IC50 (HGC-27): 880 nM
viability at 0.05 µM (MV4-11 [3]): 92.5%
Activity (MV4-11 [4]): 14.5%
Activity (MV4-11 [5]): 3.45%
viability at 0.45 µM (MV4-11 [6]): 18.7%
Activity (MV4-11 [7]): 34.6%
Activity (MV4-11 [8]): 46.1%
Activity (MV4-11 [9]): 0.69%
Activity (MV4-11 [10]): 80.7%
Activity (MV4-11 [11]): 25.6%
Activity (MV4-11 [12]): 15.1%
Activity (MV4-11 [13]): 34.9%
Activity (MV4-11 [14]): 25.2%

Source: ChEMBL document CHEMBL5096219, “Design, synthesis and biological evaluation of novel pyrazinone derivatives as PI3K/HDAC dual inhibitors” (Bioorg Med Chem, 2022)
